Data on one compound can be found in paper PMC10377034, “Syntheses of 25-Adamantyl-25-alkyl-2-methylidene-1α,25-dihydroxyvitamin D3 Derivatives with Structure–Function Studies of Antagonistic and Agonistic Active Vitamin D Analogs” (Biomolecules, 2023).

SMILES strings stand for the structures. Read-outs that look alike come from different tables or passages of the source.

The target of one assay is T1, VDR with NCoR (Homo sapiens, UniProt P11473).
T1 sequence (P11473 1-427): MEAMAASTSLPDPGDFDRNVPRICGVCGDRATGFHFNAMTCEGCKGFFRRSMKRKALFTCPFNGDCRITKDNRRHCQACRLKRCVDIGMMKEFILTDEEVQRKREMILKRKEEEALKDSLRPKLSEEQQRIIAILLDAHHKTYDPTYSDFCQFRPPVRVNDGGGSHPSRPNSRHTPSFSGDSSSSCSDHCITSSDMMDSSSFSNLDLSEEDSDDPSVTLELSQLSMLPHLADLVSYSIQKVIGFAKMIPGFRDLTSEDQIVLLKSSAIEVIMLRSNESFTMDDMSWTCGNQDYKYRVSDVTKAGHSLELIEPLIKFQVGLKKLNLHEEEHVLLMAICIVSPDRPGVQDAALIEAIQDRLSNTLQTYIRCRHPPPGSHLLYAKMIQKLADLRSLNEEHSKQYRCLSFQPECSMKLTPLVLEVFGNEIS
Description: Mammalian two-hybrid assay, dissociation of NCoR from the VDR.

Another assay deals with T2, hVDR (Homo sapiens, UniProt P11473).
T2 construct: expressed in transfected cells; host or cells: HEK293
T2 sequence (P11473 1-427): T1 sequence (P11473 1-427)
In words: VDR transactivation luciferase reporter assay in HEK293 cells (SPP×3-tk-LUC). Format: cell-based. Here is the method:
The transcriptional activity of the 25-alkylvitamin D analogs on the VDR was evaluated via a luciferase reporter assay in HEK293 human kidney cells transfected with an hVDR expression vector and a luciferase reporter with mouse osteopontin vitamin D response elements (VDREs, SPP×3-tk-LUC).
Transfections of 50 ng of TK-Spp × 3-LUC reporter plasmid, 10 ng of pCMX-β-galactosidase, and 15 ng of pCMX-VDR for each well of a 96-well plate were performed in HEK293 cells using the calcium phosphate coprecipitation method, as described previously. The mammalian two-hybrid assay for cofactor interaction with VDR used 50 ng of TK-MH100(UAS) × 3- LUC reporter plasmid, 10 ng of pCMX-β-galactosidase, 15 ng of pCMX-GAL4-RXRα, pCMX-GAL4-SRC1, or pCMX-GAL4-NCoR, and 15 ng of pCMX-VP16-VDR for each well of a 96-well plate. Luciferase and β-galactosidase activities were measured with a luminometer and a microplate reader (Molecular Devices, Sun Jose, CA, USA), respectively. Luciferase values were normalized to the internal β-galactosidase control.
HEK293 cells were co-transfected with TK-Spp × 3-LUC reporter plasmid and pCMX−VDR, and 8 h after transfection the cells were treated with several concentrations of each compound. After 24 h, the cells were harvested for assaying luciferase and β-galactosidase activity using a luminometer (Molecular Devices, Sunnyvale, CA, USA).

The target of a further assay is T3, VDR with SRC-1 (Homo sapiens, UniProt P11473).
T3 sequence (P11473 1-427): T1 sequence (P11473 1-427)
T3 sequence (Q15788 595-771 partner limits assumed): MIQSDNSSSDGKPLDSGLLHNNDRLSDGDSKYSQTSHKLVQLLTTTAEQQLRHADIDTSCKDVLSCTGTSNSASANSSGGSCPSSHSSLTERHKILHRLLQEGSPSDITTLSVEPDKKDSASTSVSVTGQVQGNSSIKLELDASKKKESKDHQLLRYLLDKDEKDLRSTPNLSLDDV
Description: Mammalian two-hybrid assay, VDR binding to SRC-1.

The next assay concerns the target T4, VDR with RXRα (Homo sapiens, UniProt P11473).
T4 sequence (P11473 1-427): T1 sequence (P11473 1-427)
T4 sequence (P19793 1-462 partner): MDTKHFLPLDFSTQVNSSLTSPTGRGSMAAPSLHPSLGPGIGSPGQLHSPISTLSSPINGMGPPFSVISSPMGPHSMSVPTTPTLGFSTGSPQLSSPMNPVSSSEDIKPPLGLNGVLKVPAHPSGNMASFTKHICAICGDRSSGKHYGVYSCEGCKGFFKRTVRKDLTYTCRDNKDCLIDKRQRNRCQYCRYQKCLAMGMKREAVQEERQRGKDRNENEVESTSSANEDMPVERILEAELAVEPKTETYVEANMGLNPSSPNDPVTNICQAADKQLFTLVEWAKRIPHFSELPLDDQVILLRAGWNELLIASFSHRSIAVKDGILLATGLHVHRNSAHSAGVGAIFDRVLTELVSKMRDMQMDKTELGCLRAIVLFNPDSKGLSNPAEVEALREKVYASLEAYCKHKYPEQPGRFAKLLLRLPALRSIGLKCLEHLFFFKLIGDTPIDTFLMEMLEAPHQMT
Description: Mammalian two-hybrid assay, interaction of the VDR with RXRα.

The test system of assay [1] is CYP24A1 expression in SW480 cells. In words: CYP24A1 expression (RT-qPCR) in SW480 cells. Conditions: SW480 intestine cells, 100 nM, 24 h.
Description: (§1) HEK293 human kidney cells (RIKEN Cell Bank, Tsukuba, Japan) were cultured in Dulbecco’s modified Eagle’s medium (DMEM) (Fujifilm Wako Pure Chemical Corporation, Tokyo, Japan) containing 5% fetal bovine serum (FBS), 100 U/mL penicillin, and 0.1 mg/mL streptomycin (Nacalai Tesque, Kyoto, Japan). SW480 human colon carcinoma cells (American Type Culture Collection, Manassas, VA) and HaCaT immortalized keratinocyte cells (kindly provided by Dr. Tadashi Terui, Department of Dermatology, Nihon University School of Medicine) were cultured in DMEM containing 10% FBS, 100 U/mL penicillin, and 0.1 mg/mL streptomycin. MG63 human osteosarcoma cells (RIKEN Cell Bank) and lung-derived H292 cells (American Type Culture Collection) were cultured in minimum essential medium containing 10% FBS, 100 U/mL penicillin, and 0.1 mg/mL streptomycin. […] All cells were cultured at 37 °C in a humidified atmosphere containing 5% CO2.
(§2) For gene expression analysis, 1 × 10^4 cells per well were plated in a 24-well plate. After 24 h, the cells were treated with an ethanol control or 100 nM of each test compound for 24 h. […] Real-time PCR was performed on the ABI PRISM 7000 sequence detection system (Thermo Fisher Scientific, Waltham, MA, USA) using Power SYBR Green PCR master mix (Thermo Fisher Scientific).
The subject of assay [2] is CYP24A1 expression in U937 cells. Description: CYP24A1 expression (RT-qPCR) in U937 cells. The settings on record: U937 blood cells, 100 nM, 24 h. On the technique in general: Quantitative PCR measures a nucleic acid by following its amplification.
Description: (§3) SW480 human colon carcinoma cells (American Type Culture Collection, Manassas, VA) and HaCaT immortalized keratinocyte cells (kindly provided by Dr. Tadashi Terui, Department of Dermatology, Nihon University School of Medicine) were cultured in DMEM containing 10% FBS, 100 U/mL penicillin, and 0.1 mg/mL streptomycin. […] All cells were cultured at 37 °C in a humidified atmosphere containing 5% CO2.
(§4) For gene expression analysis, 1 × 10^4 cells per well were plated in a 24-well plate. After 24 h, the cells were treated with an ethanol control or 100 nM of each test compound for 24 h. The total RNAs from the samples were extracted using the acid guanidine thiocyanate phenol/chloroform method [57], and cDNAs were synthesized using the ImProm-II reverse transcription system (Promega, Madison, WI) [43]. Real-time PCR was performed on the ABI PRISM 7000 sequence detection system (Thermo Fisher Scientific, Waltham, MA, USA) using Power SYBR Green PCR master mix (Thermo Fisher Scientific).
(§5) One-way ANOVA followed by Turkey’s multiple comparisons: ※ p < 0.05, ※※ p < 0.01, ※※※ p < 0.001 versus vehicle control.
Another assay concerns the target T5, recombinant hVDR-LBD (Homo sapiens, UniProt P11473).
T5 sequence (P11473 140-427): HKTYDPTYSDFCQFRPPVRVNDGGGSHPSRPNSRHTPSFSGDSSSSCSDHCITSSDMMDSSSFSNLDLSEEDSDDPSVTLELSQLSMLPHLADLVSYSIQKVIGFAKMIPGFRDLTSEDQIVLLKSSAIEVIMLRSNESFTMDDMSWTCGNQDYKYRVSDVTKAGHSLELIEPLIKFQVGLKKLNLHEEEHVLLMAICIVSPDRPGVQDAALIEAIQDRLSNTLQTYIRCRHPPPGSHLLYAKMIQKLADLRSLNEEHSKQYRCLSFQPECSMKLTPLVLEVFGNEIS
In words: biochemical.

The test system of assay [3] is CYP24A1 expression in HEK293 cells. In words: CYP24A1 expression (RT-qPCR) in HEK293 cells. The settings on record: HEK293 kidney cells, 100 nM, 24 h.
Description: as §1, §2
The test system of assay [4] is CYP24A1 expression in HaCaT cells. In words: CYP24A1 expression (RT-qPCR) in HaCaT cells. The settings on record: HaCaT skin cells, 100 nM, 24 h.
Description: as §3, §4, §5

Description for VDR with NCoR: (§6) We used the expression plasmids pCMX-VDR, pCMX-VP16- VDR, pCMX-GAL4-RXRα, pCMX-GAL4-SRC-1, and pCMX-GAL4- N-CoR, as reported previously [43]. […] We used luciferase reporters: VDR-responsive Sppx3-tk-LUC and GAL4-responsive MH100(UAS) × 4-tk-LUC reporters [43].
(§7) Transfections of 50 ng of TK-Spp × 3-LUC reporter plasmid, 10 ng of pCMX-β-galactosidase, and 15 ng of pCMX-VDR for each well of a 96-well plate were performed in HEK293 cells using the calcium phosphate coprecipitation method, as described previously [43]. The mammalian two-hybrid assay for cofactor interaction with VDR used 50 ng of TK-MH100(UAS) × 3- LUC reporter plasmid, 10 ng of pCMX-β-galactosidase, 15 ng of pCMX-GAL4-RXRα, pCMX-GAL4-SRC1, or pCMX-GAL4-NCoR, and 15 ng of pCMX-VP16-VDR for each well of a 96-well plate. Luciferase and β-galactosidase activities were measured with a luminometer and a microplate reader (Molecular Devices, Sun Jose, CA, USA), respectively. Luciferase values were normalized to the internal β-galactosidase control.
(§8) (B) Effects on the interactions between the VDR and SRC-1. HEK293 cells were co-transfected with CMX-GAL4-SRC-1, CMX-VP16-VDR, and MH100 (UAS) × 4-tk-LUC and were treated with each compound over a range of concentrations. (C) Effects on interactions of the VDR with NCoR-1. HEK293 cells were co-transfected with CMX-GAL4-N-CoR in combination with CMX-VP16-VDR and MH100 (UAS) × 4-tk-LUC and were treated with each compound over a range of concentrations.
Description for VDR with RXRα: as §6, §7, §8
Description for VDR with SRC-1: as §6, §7, §8
Description for recombinant hVDR-LBD: The pGEX-hVDR and pGEX were expressed for a GST-VDR fusion protein and a control GST protein, respectively, in Escherichia coli BL21 (Merck, Darmstadt, Germany). The bacteria were lysed by sonication in a sonication buffer (50 mM Tris-HCl, pH 8.0, 50 mM NaCl, 1 mM EDTA, and 1 mM DTT). The supernatant proteins (1 μg) were diluted in a binding buffer (25 mM Tris, pH 7.5, 100 mM KCl, 25 mM DTT, 4 mM CHAPS, pH 7.5) containing bovine serum albumin (100 μg/mL). A solution containing each test compound in 15 μL of EtOH was added to 570 μL of the GST protein solution in each tube. After being vortexed 2–3 times, the mixture was incubated for 30 min at room temperature. […] After being vortexed 2–3 times, the whole mixture was allowed to stand at 4 °C for 20 h, and 400 μL of dextran-coated charcoal solution (Sigma) was added to remove free ligands.
All values represent the means, and error bars are the standard deviations derived from triplicate assays.

In the case of `C=C1[C@H](O)CC(=C/C=C2\CCC[C@]3(C)[C@@H]([C@H](C)CC#C[C@](O)(CCCC)C45CC6CC(CC(C6)C4)C5)CC[C@@H]23)C[C@H]1O` [ADKM6, (25S)-25-(1-Adamantyl)-1α,25-dihydroxy-2-methylidene-26-propyl-23-yne-19,27-dinorvitamin D3], the IC50 at VDR with NCoR stood at 0.4 nM; at recombinant hVDR-LBD, 1.6 nM. The Transcriptional activity efficacy at hVDR (1,25(OH)2D3 = 100%) was found to be 95%. The EC50 on hVDR (read-out: Transcriptional activity EC50) is 0.62 nM; at hVDR (this study, read-out: Transcriptional Activity EC50), 0.6 nM; on VDR with SRC-1, 2.4 nM. Further, the Emax on hVDR (this study, read-out: Transcriptional Activity % Efficacy of That of 1 (converted)) was 95%. For the same compound, the “VDR-RXRα interaction EC50” value at VDR with RXRα (HEK293 cells, two-hybrid) is recorded as “second-highest activity”. The VDR-RXRα interaction efficacy on VDR with RXRα (compared to natural hormone 1) was found to be 114%. In addition, the “CYP24A1 expression relative to natural hormone 1” value in [1] was determined as 72.9%; in assay [2], 77.2%; in assay [3], 61.4%; in assay [4], 72.5%.

One may read the IC50 as the concentration at which inhibition is half-maximal. Usually EC50 stands for the concentration at which the effect is half-maximal.
